Data from patent US20240190865A1, “T-TYPE CALCIUM CHANNEL ANTAGONISTS AND USES THEREOF” (THE BOARD OF TRUSTEES OF THE LELAND STANFORD JUNIOR …, priority 2021, published 2024).

Each compound was assayed against Cav3.2 (Homo sapiens (Human), UniProt O95180) (assay: In vitro patch clamp assay (SyncroPatch 384PE)). Conditions: HEK293 cells.
Assay type: cell-based
Method: Patch clamp assays were performed at Charles River. HEK293 cells were cultured in Dulbecco's Modified Eagle Medium/Nutrient Mixture F-12 (D-MEM/F-12) supplemented with 10% fetal bovine serum, 100 U/mL penicillin G sodium, 100 μg/mL streptomycin sulfate and 500 μg/mL G418. Before testing, cells in culture dishes were washed twice with Hank's Balanced Salt Solution, treated with Accutase™ and re-suspended in the culture media (˜20×10^6 cells in 20 mL). Cells in suspension were allowed to recover for 10 minutes in tissue culture incubator set at 37° C. in a humidified 95% air: 5% CO2 atmosphere. Immediately before use in the SyncroPatch 384PE system (SP384PE), the cells were washed twice in extracellular buffer (HB-PS) to remove the culture medium and re-suspended in 20 mL of HB-PS. Extracellular buffer was loaded into the wells of Nanion 384-well Patch Clamp (NPC-384, 4×M) chip (60 μL per well). Then, cell suspension was pipetted into the wells (20 μL per well) of the chip. After establishment of the whole-cell configuration, membrane currents were recorded using patch clamp amplifier in the SP384PE system.

Chain of Cav3.2 (O95180 whole entry): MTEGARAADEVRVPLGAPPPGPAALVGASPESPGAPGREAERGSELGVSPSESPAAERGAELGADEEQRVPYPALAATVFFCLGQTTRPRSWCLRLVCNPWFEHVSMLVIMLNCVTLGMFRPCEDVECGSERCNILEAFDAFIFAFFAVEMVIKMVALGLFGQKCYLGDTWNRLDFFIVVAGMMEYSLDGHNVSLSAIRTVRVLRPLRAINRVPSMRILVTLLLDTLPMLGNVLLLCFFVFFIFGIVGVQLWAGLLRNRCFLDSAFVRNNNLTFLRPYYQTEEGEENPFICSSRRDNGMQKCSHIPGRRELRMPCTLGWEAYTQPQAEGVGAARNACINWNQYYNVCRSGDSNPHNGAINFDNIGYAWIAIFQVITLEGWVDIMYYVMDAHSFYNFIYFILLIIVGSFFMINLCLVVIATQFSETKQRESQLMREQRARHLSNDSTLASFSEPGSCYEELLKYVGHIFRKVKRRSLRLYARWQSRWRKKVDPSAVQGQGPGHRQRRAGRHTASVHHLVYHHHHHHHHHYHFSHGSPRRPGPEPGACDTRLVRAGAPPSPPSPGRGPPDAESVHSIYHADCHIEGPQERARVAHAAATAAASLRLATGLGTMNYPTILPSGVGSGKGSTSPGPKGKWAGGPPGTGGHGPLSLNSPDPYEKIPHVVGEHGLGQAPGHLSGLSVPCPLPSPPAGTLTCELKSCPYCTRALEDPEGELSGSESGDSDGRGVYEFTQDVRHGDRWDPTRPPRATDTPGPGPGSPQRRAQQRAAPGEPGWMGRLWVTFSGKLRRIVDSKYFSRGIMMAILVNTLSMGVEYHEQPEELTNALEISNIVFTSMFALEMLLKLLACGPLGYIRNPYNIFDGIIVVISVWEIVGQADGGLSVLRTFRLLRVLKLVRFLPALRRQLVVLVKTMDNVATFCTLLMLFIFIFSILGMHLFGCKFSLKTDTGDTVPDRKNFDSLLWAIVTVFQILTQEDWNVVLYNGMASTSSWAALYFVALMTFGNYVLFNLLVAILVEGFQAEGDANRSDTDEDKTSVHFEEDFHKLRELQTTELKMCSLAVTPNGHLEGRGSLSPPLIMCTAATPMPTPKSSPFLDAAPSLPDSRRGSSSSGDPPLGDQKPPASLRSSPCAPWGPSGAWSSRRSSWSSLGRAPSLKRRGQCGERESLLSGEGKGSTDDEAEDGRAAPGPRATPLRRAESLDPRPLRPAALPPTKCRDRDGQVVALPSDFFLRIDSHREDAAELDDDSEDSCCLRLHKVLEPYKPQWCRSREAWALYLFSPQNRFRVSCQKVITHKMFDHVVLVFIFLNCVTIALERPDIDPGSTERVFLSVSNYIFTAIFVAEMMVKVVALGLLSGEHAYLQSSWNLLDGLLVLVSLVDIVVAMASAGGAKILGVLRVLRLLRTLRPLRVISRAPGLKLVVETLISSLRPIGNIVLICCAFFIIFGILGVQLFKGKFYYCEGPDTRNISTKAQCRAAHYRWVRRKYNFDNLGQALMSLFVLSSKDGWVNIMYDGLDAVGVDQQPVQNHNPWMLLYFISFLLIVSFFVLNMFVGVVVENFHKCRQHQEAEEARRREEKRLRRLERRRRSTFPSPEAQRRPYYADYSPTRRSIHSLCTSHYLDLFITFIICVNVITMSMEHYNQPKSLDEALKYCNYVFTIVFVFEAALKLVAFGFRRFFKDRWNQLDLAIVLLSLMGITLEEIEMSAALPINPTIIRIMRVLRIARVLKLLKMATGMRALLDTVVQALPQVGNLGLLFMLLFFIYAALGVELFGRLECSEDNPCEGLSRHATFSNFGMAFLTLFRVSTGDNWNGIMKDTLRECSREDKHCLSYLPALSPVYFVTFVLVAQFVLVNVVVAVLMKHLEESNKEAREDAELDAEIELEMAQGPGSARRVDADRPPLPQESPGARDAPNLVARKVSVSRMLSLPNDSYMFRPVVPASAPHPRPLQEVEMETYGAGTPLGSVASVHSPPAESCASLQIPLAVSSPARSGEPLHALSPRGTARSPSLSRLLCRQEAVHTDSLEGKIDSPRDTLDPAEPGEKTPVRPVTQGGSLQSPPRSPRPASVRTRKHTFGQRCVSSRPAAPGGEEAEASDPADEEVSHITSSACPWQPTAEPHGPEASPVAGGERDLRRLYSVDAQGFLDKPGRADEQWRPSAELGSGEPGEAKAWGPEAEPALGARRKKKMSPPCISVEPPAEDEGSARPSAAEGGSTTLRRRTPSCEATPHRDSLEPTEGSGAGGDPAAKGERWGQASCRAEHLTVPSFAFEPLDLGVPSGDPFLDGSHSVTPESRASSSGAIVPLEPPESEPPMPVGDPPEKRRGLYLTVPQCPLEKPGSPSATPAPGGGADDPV

Compound	IC50 [nM]
C[C@@H](NC(=O)Cc1ccc(C2CC2)cc1)c1cc2cnn(-c3ccc(F)cc3)c2cn1 [Example 27, (R)-2-(4-cyclopropylphenyl)-N-(1-(1-(4-fluorophenyl)-1H-Pyrazolo[3,4-c]pyridin-5-yl)ethyl)acetamide]	861
C[C@@H](NC(=O)Cc1ccc(C2(F)CC2)cc1)c1cc2cnn(CC(F)(F)F)c2cn1 [Example 29, (R)-2-(4-(1-fluorocyclopropyl)phenyl)-N-(1-(1-(2,2,2-trifluoroethyl)-1H-pyrazolo[3,4-c]pyridin-5-yl)ethyl)acetamide]	533
C[C@@H](NC(=O)Cc1cnc(C(C)(F)F)c(Cl)c1)c1cc2cnn(CC(F)(F)F)c2cn1 [Example 35, (R)-2-(5-chloro-6-(1,1-difluoroethyl)pyridin-3-yl)-N-(1-(1-(2,2,2-trifluoroethyl)-1H-pyrazolo[3,4-c]pyridin-5-yl)ethyl)acetamide]	2130
C[C@@H](NC(=O)Cc1cnc(C2CC2)c(Cl)c1)c1cc2cnn(CC(F)(F)F)c2cn1 [Example 36, (R)-2-(5-chloro-6-cyclopropylpyridin-3-yl)-N-(1-(1-(2,2,2-trifluoroethyl)-1H-pyrazolo[3,4-c]pyridin-5-yl)ethyl)acetamide]	873
C[C@@H](NC(=O)Cc1ccc(C(C)(F)F)c(Cl)c1)c1cc2cnn(CC(F)(F)F)c2cn1 [Example 37, (R)-2-(3-chloro-4-(1,1-difluoroethyl)phenyl)-N-(1-(1-(2,2,2-trifluoroethyl)-1H-pyrazolo[3,4-c]pyridin-5-yl)ethyl)acetamide]	84
C[C@@H](NC(=O)Cc1ccc(C(C)(F)F)c(F)c1)c1cc2cnn(CC(F)(F)F)c2cn1 [Example 38, (R)-2-(4-(1,1-difluoroethyl)-3-fluorophenyl)-N-(1-(1-(2,2,2-trifluoroethyl)-1H-pyrazolo[3,4-c]pyridin-5-yl)ethyl)acetamide]	123
C[C@@H](NC(=O)Cc1ccc(C(F)(F)F)cc1)c1cc2cnn(CC(C)(F)F)c2cn1 [Example 40, (R)—N-(1-(1-(2,2-difluoropropyl)-1H-pyrazolo[3,4-c]Pyridin-5-yl)ethyl)-2-(4-(trifluoromethyl)phenyl)acetamide]	827
C[C@@H](NC(=O)Cc1ccc(C(F)(F)F)c(Cl)c1)c1cc2cnn(CC(F)(F)F)c2cn1 [Example 43, (R)-2-(3-chloro-4-(trifluoromethyl)phenyl)-N-(1-(1-(2,2,2-trifluoroethyl)-1H-pyrazolo[3,4-c]pyridin-5-yl)ethyl)acetamide]	214
CC[C@@H](NC(=O)Cc1ccc(C(F)(F)F)cc1)c1cc2cnn(CC(F)(F)F)c2cn1 [Example 45, (R)—N-(1-(1-(2,2,2-trifluoroethyl)-1H-pyrazolo[3,4-c]pyridin-5-yl)propyl)-2-(4-(trifluoromethyl)phenyl)acetamide]	113
C[C@@H](NC(=O)Cc1ccc(C2(C#N)CC2)cc1)c1cc2cnn(CC(F)(F)F)c2cn1 [Example 47, (R)-2-(4-(1-cyanocyclopropyl)phenyl)-N-(1-(1-(2,2,2-trifluoroethyl)-1H-pyrazolo[3,4-c]pyridin-5-yl)ethyl)acetamide]	220
Cc1nn(C)c2ccc(CC(=O)N[C@H](C)c3cc4cnn(CC(F)(F)F)c4cn3)cc12 [Example 49, (R)-2-(1,3-dimethyl-1H-indazol-5-yl)-N-(1-(1-(2,2,2-trifluoroethyl)-1H-pyrazolo[3,4-c]pyridin-5-yl)ethyl)acetamide]	352
C[C@@H](NC(=O)Cc1ccc2c(c1)c(C#N)cn2C)c1cc2cnn(CC(F)(F)F)c2cn1 [Example 50, (R)-2-(3-cyano-1-methyl-1H-indol-5-yl)-N-(1-(1-(2,2,2-trifluoroethyl)-1H-pyrazolo[3,4-c]pyridin-5-yl)ethyl)acetamide]	850
C[C@@H](NC(=O)Cc1ccc(C(F)(F)F)cc1)c1cc2ccn(CC(F)(F)F)c2cn1 [Example 51, (R)—N-(1-(1-(2,2,2-trifluoroethyl)-1H-pyrrolo[2,3-c]pyridin-5-yl)ethyl)-2-(4-(trifluoromethyl)phenyl)acetamide]	411
C[C@@H](NC(=O)Cc1ccc(C(C)(F)F)c(C#N)c1)c1cc2cnn(CC(F)(F)F)c2cn1 [Example 52, (R)-2-(3-cyano-4-(1,1-difluoroethyl)phenyl)-N-(1-(1-(2,2,2-trifluoroethyl)-1H-pyrazolo[3,4-c]pyridin-5-yl)ethyl)acetamide]	389
[2H][C@](C)(NC(=O)Cc1ccc(C(F)(F)F)cc1)c1cc2cnn(CC(F)(F)F)c2cn1 [Example 55, (R)—N-(1-(1-(2,2,2-trifluoroethyl)-1H-pyrazolo[3,4-c]pyridin-5-yl)ethyl-1-d)-2-(4-(trifluoromethyl)phenyl)acetamide]	335
CC(C)c1ccc(CC(=O)N[C@H](C)c2cc3c(cn2)OC(F)(F)O3)cc1 [Example 57, (R)—N-(1-(2,2-difluoro-[1,3]dioxolo[4,5-c]pyridin-6-yl)ethyl)-2-(4-isopropylphenyl)acetamide]	868
C[C@@H](NC(=O)Cc1ccc(C2(C(F)(F)F)CC2)nc1)c1ncc(Cl)s1 [Example 58, (R)—N-(1-(5-chlorothiazol-2-yl)ethyl)-2-(6-(1-(trifluoromethyl)cyclopropyl)pyridin-3-yl)acetamide]	4900
C[C@@H](NC(=O)Cc1ccc(C2(C(F)(F)F)CC2)nc1)c1ccc(OCC(F)(F)F)cn1 [Example 59, (R)—N-(1-(5-(2,2,2-trifluoroethoxy)pyridin-2-yl)ethyl)-2-(6-(1-(trifluoromethyl)cyclopropyl)pyridin-3-yl)acetamide]	97

Results, then the compound that gave them:

IC50 [nM]	Compound
89	C[C@@H](NC(=O)Cc1ccc(C2CC2)cc1)c1cc2cnn(CC(F)(F)F)c2cn1 [Example 28, (R)-2-(4-cyclopropylphenyl)-N-(1-(1-(2,2,2-trifluoroethyl)-1H-pyrazolo[3,4-c]pyridin-5-yl)ethyl)acetamide]
9420	Cc1nn(CC(F)(F)F)c2cnc([C@@H](C)NC(=O)Cc3ccc(C(C)C)cc3)cc12 [Example 32, (R)-2-(4-isopropylphenyl)-N-(1-(3-methyl-1-(2,2,2-trifluoroethyl)-1H-pyrazolo[3,4-c]pyridin-5-yl)ethyl)acetamide]
8270	Cc1nn(CC(F)(F)F)c2cnc([C@@H](C)NC(=O)Cc3ccc(C4CC4)cc3)cc12 [Example 33, (R)-2-(4-cyclopropylphenyl)-N-(1-(3-methyl-1-(2,2,2-trifluoroethyl)-1H-pyrazolo[3,4-c]pyridin-5-yl)ethyl)acetamide]
> 10000	C[C@@H](NC(=O)Cc1ccc(C2CC2)cn1)c1cc2cnn(CC(F)(F)F)c2cn1 [Example 34, (R)-2-(5-cyclopropylpyridin-2-yl)-N-(1-(1-(2,2,2-trifluoroethyl)-1H-pyrazolo[3,4-c]pyridin-5-yl)ethyl)acetamide]
519	C[C@@H](NC(=O)Cc1cnc(C2CC2)c(F)c1)c1cc2cnn(CC(F)(F)F)c2cn1 [Example 39, (R)-2-(6-cyclopropyl-5-fluoropyridin-3-yl)-N-(1-(1-(2,2,2-trifluoroethyl)-1H-pyrazolo[3,4-c]pyridin-5-yl)ethyl)acetamide]
727	C[C@@H](NC(=O)Cc1ccc(C(C)(F)F)cc1)c1cc2cnn(CC(C)(F)F)c2cn1 [Example 41, (R)-2-(4-(1,1-difluoroethyl)phenyl)-N-(1-(1-(2,2-difluoropropyl)-1H-pyrazolo[3,4-c]pyridin-5-yl)ethyl)acetamide]
394	C[C@@H](NC(=O)Cc1ccc(C(F)(F)F)c(F)c1)c1cc2cnn(CC(F)(F)F)c2cn1 [Example 42, (R)-2-(3-fluoro-4-(trifluoromethyl)phenyl)-N-(1-(1-(2,2,2-trifluoroethyl)-1H-pyrazolo[3,4-c]pyridin-5-yl)ethyl)acetamide]
71	C[C@@H](NC(=O)Cc1ccc(C2(C(F)(F)F)CC2)cc1)c1cc2cnn(CC(F)(F)F)c2cn1 [Example 44, (R)—N-(1-(1-(2,2,2-trifluoroethyl)-1H-pyrazolo[3,4-c]pyridin-5-yl)ethyl)-2-(4-(1-(trifluoromethyl)cyclopropyl)phenyl)acetamide]
806	Cc1c2ccc(CC(=O)N[C@H](C)c3cc4cnn(CC(F)(F)F)c4cn3)cc2nn1C [Example 46, (R)-2-(2,3-dimethyl-2H-indazol-6-yl)-N-(1-(1-(2,2,2-trifluoroethyl)-1H-pyrazolo[3,4-c]pyridin-5-yl)ethyl)acetamide]
260	C[C@@H](NC(=O)Cc1ccc2c(c1)OC(F)(F)O2)c1cc2cnn(CC(F)(F)F)c2cn1 [Example 48, (R)-2-(2,2-difluorobenzo[d][1,3]dioxol-5-yl)-N-(1-(1-(2,2,2-trifluoroethyl)-1H-pyrazolo[3,4-c]pyridin-5-yl)ethyl)acetamide]
919	Cc1nc2cc(CC(=O)N[C@H](C)c3cc4cnn(CC(F)(F)F)c4cn3)ccc2n1C [Example 53, (R)-2-(1,2-dimethyl-1H-benzo[d]imidazol-5-yl)-N-(1-(1-(2,2,2-trifluoroethyl)-1H-pyrazolo[3,4-c]pyridin-5-yl)ethyl)acetamide]
529	Cc1c(C#N)c2cc(CC(=O)N[C@H](C)c3cc4cnn(CC(F)(F)F)c4cn3)ccc2n1C [Example 54, (R)-2-(3-cyano-1,2-dimethyl-1H-indol-5-yl)-N-(1-(1-(2,2,2-trifluoroethyl)-1H-pyrazolo[3,4-c]pyridin-5-yl)ethyl)acetamide]
37	CC(C)c1ccc(CC(=O)N[C@H](C)c2ccc(OCC(F)(F)F)cn2)cc1 [Example 56, 2-(4-isopropylphenyl)-N-[(1R)-1-(5-(2,2,2-trifluoroethoxy)pyridin-2-yl)ethyl]acetamide]
